The text below walks through data of US20260347353A1, “INDOLIZINE DERIVATIVES FOR TREATING CANCER” (Antares Therapeutics, Inc., priority 2022, published 2026).

Where only a bound is given, the exact number is not on record here.

One test deals with p53 Y220C (Homo sapiens, UniProt P04637, Y220C). As to the kind of experiment: Luciferase Reporter Assay, p53 Y220C (NCIH1299 cells with inducible p53 Y220C and p53 response element-luciferase). It is filed as cell-based. The note with it: 6 hour compound treatment, read-out: Luc P53 Y220C AC50. On the procedure:
Luciferase reporter (Luc) driven by p53 response element (LTV-p53-Luc (SKU #: LTLR007); G&P Biosciences) and inducible p53 Y220C construct (Tet-One inducible expression system; Takara) were stably expressed in NCIH1299 cells by lentiviral transduction. The cells were then used for p53 reporter assay. 5,000 cells were seeded in each well of 384 plate and cultured in 0.5 ug/mL doxycycline (D3072; Sigma) containing medium for 24 hours before compound treatment. After 6 hour of compound treatment, equal volume of One-Glo reagent (E6110; Promega) was added to each well and the plate was incubated for 5 minutes with shaking at room temperature. The luciferase activity was immediately measured with PheraStar microplate reader. Luciferase activity was stimulated by 10 uM of a tool compound as positive control and AC50 was calculated.

Another test relates to NUGC3 cells (p53 Y220C). As to the kind of experiment: Cell Proliferation Assay (CellTiter-Glo), NUGC3 p53 Y220C. It is filed as cell-based. The note with it: Homo sapiens, NUGC-3, 120 h, 5 days, read-out: CTG NUGC3 P53 Y220C IC50. On the procedure: Inducible p53 Y220C and R273H constructs (Tet-One inducible expression system; Takara) were stably expressed in NCIH1299 cells by lentiviral transduction. NUGC3, A549, BxPC3, T3M4, HuH7, HCC2935, MFE296, NCIH1299, NCIH1299-inducible p53 Y220C, and NCIH1299-inducible p53 R273H cell lines were used for cell proliferation assay. 250-500 cells were seeded in each well of 384 plate and then compounds were dispensed into each well using Echo or Tecan. After 5 days of incubation, equal volume of CellTiter-Glo reagent (G7570; Promega) was added into each well and the plate was incubated at room temperature for 10 minutes with shaking. The luminescent signal was measured by PheraStar microplate reader and IC50 was calculated.
(In general: ATP-based viability assays read luminescence as a measure of living cells.)

The target in test [1] is T1, p53 Y220C mutant protein (amino acid residues 94-293) (Homo sapiens, UniProt P04637, Y220C).
T1 construct: p53 Y220C mutant protein (amino acid residues 94-293)
T1 sequence (P04637 94-293, stated change not applied): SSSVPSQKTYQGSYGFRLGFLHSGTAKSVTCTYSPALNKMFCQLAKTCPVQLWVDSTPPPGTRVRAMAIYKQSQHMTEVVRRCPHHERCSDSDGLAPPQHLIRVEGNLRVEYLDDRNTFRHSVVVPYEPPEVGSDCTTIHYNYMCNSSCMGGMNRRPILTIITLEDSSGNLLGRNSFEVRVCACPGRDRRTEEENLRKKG
As to the kind of experiment: Surface Plasmon Resonance (SPR) assay, p53 Y220C Kd_kinetic. The note with it: multi-cycle kinetics, 16 or 20 °C, pH 7.5, 1:1 binding model. As to the method: SPR experiments are performed on a Biacore 8K instrument. […] Compounds are 2-fold, 7-point serial diluted; the top concentration varies depending on the potency. Compound binding affinities are measured in the multi-cycle kinetics mode, at 30 μL/min flow rate with 60 seconds association time and 120 seconds dissociation time. The running buffer contains 50 mM Tris, pH 7.5, 100 mM NaCl, 1 mM DTT, 0.01% Brij35, 0.05% Tween-20 and 1% DMSO. The assay temperature is maintained at 16 or 20 °C and data are fit into the 1:1 binding model using the Biacore Insight Evaluation software.

In the case of `CNC(=O)c1cnc(NCc2nc(-c3cc4c(N[C@@H]5CCN(C)C[C@@H]5F)cccn4c3SC(F)(F)F)no2)nc1` [Example 50, 2-({[3-(8-{[(3S,4R)-3-fluoro-1-methylpiperidin-4-yl]amino}-3-[(trifluoromethyl)sulfanyl]indolizin-2-yl)-1,2,4-oxadiazol-5-yl]methyl}amino)-N-methylpyrimidine-5-carboxamide], the concentration at half-maximal activity (AC50) on p53 Y220C was less than 0.75 µM. The concentration for half-maximal inhibition (IC50) in the test with NUGC3 cells (p53 Y220C) was in the range of 0.75 to 1.5 µM. In addition, in test [1], the Kd was less than 0.01 µM.
For `CN1CC[C@@H](Nc2cccn3c(SC(F)(F)F)c(-c4noc([C@@H](CO)NC(=O)C5CC5)n4)cc23)[C@@H](F)C1` [Example 53, N-[(1R)-1-[3-(8-{[(3S,4R)-3-fluoro-1-methylpiperidin-4-yl]amino}-3-[(trifluoromethyl)sulfanyl]indolizin-2-yl)-1,2,4-oxadiazol-5-yl]-2-hydroxyethyl]cyclopropanecarboxamide] the same measures were no less than 3 µM, no less than 3 µM and 0.01 to 0.1 µM.
For `CN1CC[C@@H](Nc2cccn3c(SC(F)(F)F)c(-c4noc([C@H](CO)NC(=O)C5CC5)n4)cc23)[C@@H](F)C1` [Example 55, N-[(1S)-1-[3-(8-{[(3S,4R)-3-fluoro-1-methylpiperidin-4-yl]amino}-3-[(trifluoromethyl)sulfanyl]indolizin-2-yl)-1,2,4-oxadiazol-5-yl]-2-hydroxyethyl]cyclopropanecarboxamide] the same measures were no less than 3 µM, no less than 3 µM and 0.01 to 0.1 µM.
The corresponding values for `CN1CC[C@@H](Nc2cccn3c(SC(F)(F)F)c(-c4noc(CNC(=O)[C@H]5COCCN5C)n4)cc23)[C@@H](F)C1` [Example 68, (3R)-N-{[3-(8-{[(3S,4R)-3-fluoro-1-methylpiperidin-4-yl]amino}-3-[(trifluoromethyl)sulfanyl]indolizin-2-yl)-1,2,4-oxadiazol-5-yl]methyl}-4-methylmorpholine-3-carboxamide] are no less than 3 µM, no less than 3 µM and 0.01 to 0.1 µM.
On to `CN1CC[C@@H](Nc2cccn3c(SC(F)(F)F)c(-c4noc(CNC(=O)[C@@H]5COCCN5C)n4)cc23)[C@@H](F)C1` [Example 69, (3S)—N-{[3-(8-{[(3S,4R)-3-fluoro-1-methylpiperidin-4-yl]amino}-3-[(trifluoromethyl)sulfanyl]indolizin-2-yl)-1,2,4-oxadiazol-5-yl]methyl}-4-methylmorpholine-3-carboxamide], for which, on p53 Y220C, the AC50 was no less than 3 µM. Besides, the half-inhibitory concentration (IC50) in the test with NUGC3 cells (p53 Y220C) was no less than 3 µM. In test [1], this molecule showed an equilibrium dissociation constant (Kd) of 0.01 to 0.1 µM.
`CN1CC[C@@H](Nc2cccn3c(SC(F)(F)F)c(-c4noc(CNC(=O)c5cncs5)n4)cc23)[C@@H](F)C1` [Example 70]: the concentration at half-maximal activity (AC50) on p53 Y220C was less than 0.75 µM. For the same molecule, the IC50 in the test with NUGC3 cells (p53 Y220C) was less than 0.75 µM. The Kd in test [1] is less than 0.01 µM.
With `Cc1ncc(C(=O)NCc2nc(-c3cc4c(N[C@@H]5CCN(C)C[C@@H]5F)cccn4c3SC(F)(F)F)no2)o1` [Example 71], the AC50 on p53 Y220C was less than 0.75 µM. In addition, the half-maximal inhibitory concentration (IC50) with NUGC3 cells (p53 Y220C) was less than 0.75 µM. Also, the Kd in test [1] was less than 0.01 µM.
In the case of `CN1CC[C@@H](Nc2cccn3c(SC(F)(F)F)c(-c4noc(CNC(=O)c5cnco5)n4)cc23)[C@@H](F)C1` [Example 72], on p53 Y220C, the AC50 is less than 0.75 µM. Moreover, the 50% inhibitory concentration (IC50) with NUGC3 cells (p53 Y220C) is less than 0.75 µM. For the same molecule, the Kd in test [1] was less than 0.01 µM.
Turning to `CN1CC[C@@H](Nc2cccn3c(SC(F)(F)F)c(-c4noc(CNC(=O)c5cnc[nH]5)n4)cc23)[C@@H](F)C1` [Example 73], at p53 Y220C, the half-maximal activity concentration (AC50) is less than 0.75 µM. In the test with NUGC3 cells (p53 Y220C), the IC50 was 0.75 to 1.5 µM. In test [1], this molecule showed a dissociation constant (Kd) of less than 0.01 µM.
With `CN1CC[C@@H](Nc2cccn3c(SC(F)(F)F)c(-c4noc(CNC(=O)c5ncon5)n4)cc23)[C@@H](F)C1` [Example 74], at p53 Y220C, the concentration at half-maximal activity (AC50) lay in the range of 0.75 to 1.5 µM. For the same molecule, the half-maximal inhibitory concentration (IC50) with NUGC3 cells (p53 Y220C) is 1.5 to 3 µM. Besides, the Kd in test [1] is less than 0.01 µM.
The corresponding values for `CN1CC[C@@H](Nc2cccn3c(SC(F)(F)F)c(-c4noc(CNC(=O)c5ncn[nH]5)n4)cc23)[C@@H](F)C1` [Example 75] are 0.75 to 1.5 µM, 0.75 to 1.5 µM and less than 0.01 µM.
As to `CN1CC[C@@H](Nc2cccn3c(SC(F)(F)F)c(-c4noc(CNC(=O)c5ccno5)n4)cc23)[C@@H](F)C1` [Example 76], at p53 Y220C, the concentration at half-maximal activity (AC50) was less than 0.75 µM. Besides, the 50% inhibitory concentration (IC50) in the test with NUGC3 cells (p53 Y220C) was in the range of 0.75 to 1.5 µM. In test [1], the dissociation constant Kd is less than 0.01 µM.
The corresponding values for `CN1CC[C@@H](Nc2cccn3c(SC(F)(F)F)c(-c4noc(CNC(=O)c5cnc(N)o5)n4)cc23)[C@@H](F)C1` [Example 77] are less than 0.75 µM, less than 0.75 µM and less than 0.01 µM.
For `CN1CC[C@@H](Nc2cccn3c(SC(F)(F)F)c(-c4noc(CNC(=O)c5ncn(C)n5)n4)cc23)[C@@H](F)C1` [Example 78] the same measures were less than 0.75 µM, less than 0.75 µM and less than 0.01 µM.
The corresponding values for `CN1CC[C@@H](Nc2cccn3c(SC(F)(F)F)c(-c4noc(CNC(=O)c5cnn(C)n5)n4)cc23)[C@@H](F)C1` [Example 79] are less than 0.75 µM, less than 0.75 µM and less than 0.01 µM.
On to `CN1CC[C@@H](Nc2cccn3c(SC(F)(F)F)c(-c4noc(CNC(=O)c5cnn[nH]5)n4)cc23)[C@@H](F)C1` [Example 80], for which the AC50 at p53 Y220C lay in the range of 1.5 to 3 µM. Further, the half-maximal inhibitory concentration (IC50) with NUGC3 cells (p53 Y220C) lay in the range of 1.5 to 3 µM. The equilibrium dissociation constant (Kd) in test [1] was less than 0.01 µM.
For the molecule `CNC(=O)c1coc(NCc2nc(-c3cc4c(N[C@@H]5CCN(C)C[C@@H]5F)cccn4c3SC(F)(F)F)no2)n1` [Example 81], the AC50 at p53 Y220C was less than 0.75 µM. For the same molecule, the half-inhibitory concentration (IC50) in the test on NUGC3 cells (p53 Y220C) was 0.75 to 1.5 µM. In addition, the Kd in test [1] is less than 0.01 µM.
For `CN1CC[C@@H](Nc2cccn3c(SC(F)(F)F)c(-c4noc(CNC(=O)c5nnc(N(C)C)s5)n4)cc23)[C@@H](F)C1` [Example 82] the same measures were less than 0.75 µM, less than 0.75 µM and less than 0.01 µM.
For the molecule `CN1CC[C@@H](Nc2cccn3c(SC(F)(F)F)c(-c4noc(CNC(=O)c5nnc[nH]5)n4)cc23)[C@@H](F)C1` [Example 83], the half-maximal inhibitory concentration (IC50) in the test with NUGC3 cells (p53 Y220C) lay in the range of 0.75 to 1.5 µM.
As to `CN1CC[C@@H](Nc2cccn3c(SC(F)(F)F)c(-c4cnc(CNC(=O)C5CC5)o4)cc23)[C@@H](F)C1` [Example 84], on p53 Y220C, the AC50 was no less than 3 µM. Besides, the IC50 in the test with NUGC3 cells (p53 Y220C) was no less than 3 µM. For the same molecule, the dissociation constant (Kd) in test [1] was in the range of 0.01 to 0.1 µM.
Take `CN1CC[C@@H](Nc2cccn3c(SC(F)(F)F)c(-c4noc(CNC(=O)c5ccn(C)c5)n4)cc23)[C@@H](F)C1` [Example 86]: the concentration at half-maximal activity (AC50) on p53 Y220C is less than 0.75 µM. In test [1], the Kd was less than 0.01 µM.
Regarding `CN1CC[C@@H](Nc2cccn3c(SC(F)(F)F)c(-c4cc(CNC(=O)C5CC5)no4)cc23)[C@@H](F)C1` [Example 87], the AC50 at p53 Y220C was 0.75 to 1.5 µM. The equilibrium dissociation constant (Kd) in test [1] was less than 0.01 µM.
The corresponding values for `CN1CC[C@@H](Nc2cccn3c(SC(F)(F)F)c(-c4cc(CNC(=O)c5cnn(C(C)(C)C)c5)on4)cc23)[C@@H](F)C1` [Example 88] are less than 0.75 µM and 0.01 to 0.1 µM.
Regarding `CN1CC[C@@H](Nc2cccn3c(SC(F)(F)F)c(-c4cc(CNC(=O)c5cnc(N(C)C)o5)no4)cc23)[C@@H](F)C1` [Example 90], the AC50 on p53 Y220C is less than 0.75 µM. Besides, the Kd in test [1] is less than 0.01 µM.
In the case of `CN1CC[C@@H](Nc2cccn3c(SC(F)(F)F)c(-c4noc(CNC(=O)c5noc(N(C)C)n5)n4)cc23)[C@@H](F)C1` [Example 91], at p53 Y220C, the half-maximal activity concentration (AC50) was less than 0.75 µM. The molecule further returned a dissociation constant (Kd) in test [1] of less than 0.01 µM.
For `CN1CC[C@@H](Nc2cccn3c(SC(F)(F)F)c(-c4cc(CNC(=O)c5cnc(N(C)C)s5)no4)cc23)[C@@H](F)C1` [Example 92] the same measures were less than 0.75 µM and less than 0.01 µM.
Regarding `CN1CC[C@@H](Nc2cccn3c(SC(F)(F)F)c(-c4noc(CNC(=O)c5ccn(CC(C)(C)O)c5)n4)cc23)[C@@H](F)C1` [Example 95], the AC50 on p53 Y220C is less than 0.75 µM. In addition, the dissociation constant Kd in test [1] is less than 0.01 µM.
In the case of `CN1CC[C@@H](Nc2cccn3c(SC(F)(F)F)c(-c4noc(CNC(=O)c5ccn(CCF)c5)n4)cc23)[C@@H](F)C1` [Example 96], the AC50 at p53 Y220C is less than 0.75 µM. Also, the Kd in test [1] is less than 0.01 µM.
For `COCC1(n2ccc(C(=O)NCc3nc(-c4cc5c(N[C@@H]6CCN(C)C[C@@H]6F)cccn5c4SC(F)(F)F)no3)c2)CC1` [Example 97] the same measures were less than 0.75 µM and less than 0.01 µM.

The AC50 is the midpoint of the concentration-response curve, whichever way the signal moves. As a reminder, the IC50 is the concentration at which inhibition is half-maximal. Usually Kd stands for the free concentration of one partner at which half of the binding sites on the other are occupied at equilibrium, for simple one-to-one binding.
